Measurements as given in PubChem BioAssay (NCI).
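Cultured in 96-well plates, cells were exposed to test compound for 48 hours across five concentrations. Abbreviation: GI50, concentration required for 50% inhibition of growth. Definition used: TGI = concentration required for complete inhibition of growth.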

What was measured:
Assay in all cases: NCI anticancer screen, dose series, 48 h
[1] = tested on: 786-0 renal
[2] = tested on: ACHN renal
[3] = tested on: SK-MEL-2 melanoma
[4] = tested on: BT-549 breast
[5] = tested on: UACC-62 melanoma
[6] = tested on: PC-3 prostate
[7] = tested on: SF-295 CNS
[8] = tested on: MALME-3M melanoma
[9] = tested on: HT29 colon
[10] = tested on: LOX IMVI melanoma

Compound	GI50 [1]	TGI [1]	GI50 [2]	TGI [2]	GI50 [3]	TGI [3]	GI50 [4]	TGI [4]	GI50 [5]	TGI [5]	GI50 [6]	TGI [6]	GI50 [7]	TGI [7]	GI50 [8]	TGI [8]	GI50 [9]	TGI [9]	GI50 [10]	TGI [10]
ClCc1cccc(Cn2cnc3nc(Cl)nc(Cl)c32)c1	0.697 µM	1.76 µM	0.396 µM	0.837 µM	1.78 µM	3.74 µM	0.487 µM	1.75 µM	1.02 µM	2.22 µM	0.644 µM	2.06 µM	2.02 µM	3.78 µM	6.15 µM	13 µM				
O=c1c2ccccc2c(=O)c2c1[nH]c1c(-c3ccccc3)c(-c3ccccc3)c(=O)c12	3.96 µM	14.9 µM	1.93 µM	3.62 µM	2.84 µM	15.6 µM	2.09 µM	4.69 µM	1.72 µM	3.38 µM	2.67 µM	11.1 µM	2.34 µM	6.24 µM	2.24 µM	8.19 µM	4.29 µM	> 100 µM	2.55 µM	6.2 µM
O=c1cccc(C#CC#CC2=CCCCC2)o1	1.59 µM	4.35 µM	4.49 µM	10 µM	10.3 µM	> 49 µM	2.57 µM		2.87 µM	8.56 µM	6.6 µM	11.6 µM	9.04 µM	16.4 µM	7.34 µM	13.8 µM	14 µM	> 100 µM	3.09 µM	
CN(C)C(=O)[C@H](O)[C@H](Cc1ccccc1)NC(=O)c1cc2cc(Cl)ccc2[nH]1	27.3 µM	> 85.2 µM	22.2 µM	60.8 µM	17.2 µM	37.2 µM	22.8 µM	72.1 µM	13.5 µM	32.7 µM	24.4 µM	> 89.6 µM	17.3 µM	39 µM	16.2 µM	44.1 µM	20.3 µM	48.8 µM	17 µM	38.5 µM
C1CCC([PH+](C2CCCCC2)C2CCCCC2[PH+](C2CCCCC2)C2CCCCC2)CC1.O=C(C1[CH-]CCCC1)C1CCCC[N-]1.[Au] (stereo not drawn)	0.413 µM	1.85 µM	0.92 µM	2.12 µM	0.379 µM	2.02 µM	0.261 µM	1.5 µM	0.226 µM	0.835 µM	0.218 µM	3.8 µM	0.262 µM	1.09 µM						
O=c1cc(NC2CCN(CCCc3ccccc3)CC2)c2cc(Cl)ccc2o1	6.55 µM	21.2 µM	4.86 µM	17.6 µM	18.4 µM	33.1 µM	12.9 µM	26.8 µM	15.1 µM	29.8 µM	12.9 µM	26.9 µM	15.1 µM	29.9 µM	11.2 µM	25.4 µM	4.6 µM	19.5 µM	5.8 µM	19.2 µM
Cc1ncc(CCCN(C)C)cc1Nc1ncc2c(n1)-c1ccc(C(F)(F)F)cc1NC(=S)C2	0.0825 µM	21.6 µM	0.0892 µM	> 53.6 µM	1.08 µM	6.99 µM	0.768 µM	21.8 µM	0.0313 µM	17.9 µM	< 0.0207 µM	24.5 µM	< 0.01 µM	2.7 µM	0.0312 µM	23.6 µM	< 0.0168 µM	10.2 µM	0.0276 µM	15.1 µM
